The structures appear in SMILES notation.

The assay concerns HIV. In words: MT4 assay: antiviral HIV activity (cell protection, cell titer glo readout at 96 hours). The assay is classed as cell-based. The note with it: Human immunodeficiency virus 1, MT4, 96 h, MT4 cells, cell titer glo readout at 96 hours, 10 point dose response; read-out: HIV MT4 Assay IC50. In outline: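 MT-4 cells infected with HIV, with inhibition readout by CellTiter-Glo luminescence at 96 h relative to no-compound control. Cytotoxicity measured in parallel under the same conditions. IC50 from a 10-point, 3-4-fold dilution series spanning >1000-fold, fitted with a four-parameter logistic equation.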
A general note: ATP-based viability assays read luminescence as a measure of living cells.
A word on the IC50: it is the concentration that inhibits the measured activity by half. Take `Cc1nc2c(cc(-c3nc(N4CCC(F)CC4)ns3)n2C)c(-c2cc(F)c3c(c2C)CCCO3)c1[C@H](OC(C)(C)C)C(=O)O` [Example 399]: the IC50 was 28.7 nM. Next, `Cc1nc2c(cc(-c3nc(N4CCN(C(C)C)CC4)ns3)n2C)c(-c2cc(F)c3c(c2C)CCCO3)c1[C@H](OC(C)(C)C)C(=O)O` [Example 400]: 6.3 nM.

Turning to `Cc1nc2c(cc(-c3nc(N4CC[C@@H](N(C)C)C4)ns3)n2C)c(-c2cc(F)c3c(c2C)CCCO3)c1[C@H](OC(C)(C)C)C(=O)O` [Example 401], the half-maximal inhibitory concentration (IC50) is 12.8 nM. The value for `Cc1nc2c(cc(-c3nc(N4CCC(N5CCCC5)CC4)ns3)n2C)c(-c2cc(F)c3c(c2C)CCCO3)c1[C@H](OC(C)(C)C)C(=O)O` [Example 402] was 15 nM; that for `Cc1nc2c(cc(-c3nc(N4CCC4)ns3)n2C)c(-c2cc(F)c3c(c2C)CCCO3)c1[C@H](OC(C)(C)C)C(=O)O` [Example 403] was 12.9 nM; that for `COC[C@@H]1CCCN1c1nsc(-c2cc3c(-c4cc(F)c5c(c4C)CCCO5)c([C@H](OC(C)(C)C)C(=O)O)c(C)nc3n2C)n1` [Example 404] was 12.8 nM. Next, `Cc1nc2c(cc(-c3nc(N4CCN(CCN5CCOCC5)CC4)ns3)n2C)c(-c2cc(F)c3c(c2C)CCCO3)c1[C@H](OC(C)(C)C)C(=O)O` [Example 405]: 2.7 nM. Next, `Cc1nc2c(cc(-c3nc(NCCS(C)(=O)=O)ns3)n2C)c(-c2cc(F)c3c(c2C)CCCO3)c1[C@H](OC(C)(C)C)C(=O)O` [Example 406]: 39.2 nM; `Cc1nc2c(cc(-c3nc(NC4CCOCC4)ns3)n2C)c(-c2cc(F)c3c(c2C)CCCO3)c1[C@H](OC(C)(C)C)C(=O)O` [Example 407]: 25.4 nM. As for `Cc1nc2c(cc(-c3csc(N4CCN(C5CCOCC5)CC4)n3)n2C)c(-c2cc(F)c3c(c2C)CCCO3)c1[C@H](OC(C)(C)C)C(=O)O` [Example 408], the IC50 came out at 2.7 nM. Next, `Cc1nc2c(cc(/C=C/C(=O)NCC3CCCCC3)n2C)c(-c2cc(F)c3c(c2C)CCCO3)c1[C@H](OC(C)(C)C)C(=O)O` [Example 414]: 17 nM; `Cc1nc2c(cc(/C=C/C(=O)NCC3CC3)n2C)c(-c2cc(F)c3c(c2C)CCCO3)c1[C@H](OC(C)(C)C)C(=O)O` [Example 415]: 40.1 nM; `Cc1nc2c(cc(/C=C/C(=O)NCCC(C)(C)C)n2C)c(-c2cc(F)c3c(c2C)CCCO3)c1[C@H](OC(C)(C)C)C(=O)O` [Example 416]: 26.7 nM. Next, `Cc1nc2c(cc(/C=C/C(=O)NCc3ccc(F)cc3)n2C)c(-c2cc(F)c3c(c2C)CCCO3)c1[C@H](OC(C)(C)C)C(=O)O` [Example 417]: 33.7 nM; `Cc1nc2c(cc(/C=C/C(=O)NCCO)n2C)c(-c2cc(F)c3c(c2C)CCCO3)c1[C@H](OC(C)(C)C)C(=O)O` [Example 418]: 3440 nM; `Cc1nc2c(cc(/C=C/C(=O)NCCN3CCCC3=O)n2C)c(-c2cc(F)c3c(c2C)CCCO3)c1[C@H](OC(C)(C)C)C(=O)O` [Example 419]: 3240 nM. Next, `Cc1ccc(-c2c([C@H](OC(C)(C)C)C(=O)O)c(C)nc3c2cc(-c2ccnc(-c4ccc5c(cnn5C)c4)c2)n3C)cc1` [Example 421]: 7.6 nM; `Cc1nc2c(cc(-c3ccnc(-c4ccc5c(cnn5C)c4)c3)n2C)c(-c2ccc3c(c2Cl)NCCO3)c1[C@H](OC(C)(C)C)C(=O)O` [Example 422]: 1.5 nM.

Take `Cc1nc2c(cc(-c3ccnc(-c4ccc5c(cnn5C)c4)c3)n2C)c(-c2ccc3c(c2C)NCCO3)c1[C@H](OC(C)(C)C)C(=O)O` [Example 423]: the IC50 came out at 1.8 nM.

In the case of `Cc1nc2c(cc(-c3ccnc(-c4ccc5c(cnn5C)c4)c3)n2C)c(-c2ccccc2)c1[C@H](OC(C)(C)C)C(=O)O` [Example 424], the IC50 is 46.4 nM. The value for `Cc1nc2c(cc(-c3ccnc(-c4ccc5c(cnn5C)c4)c3)n2C)c(C2=CCCCC2)c1[C@H](OC(C)(C)C)C(=O)O` [Example 425] was 34.5 nM. As to `Cc1nc2c(cc(-c3ccnc(-c4ccc5c(cnn5C)c4)c3)n2C)c(C)c1[C@H](OC(C)(C)C)C(=O)O` [Example 426], the half-maximal inhibitory concentration (IC50) was determined as 45000 nM.

For the compound `Cc1nc2c(cc(-c3ccnc(-c4ccc5c(cnn5C)c4)c3)n2C)c(-c2ccc3c(c2C)OCCO3)c1[C@H](OC(C)(C)C)C(=O)O` [Example 427], the half-inhibitory concentration (IC50) turned out to be 2.7 nM. The value for `Cc1nc2c(cc(-c3ccnc(-c4ccc5c(cnn5C)c4)c3)n2C)c(-c2ccc3c(c2)CCCO3)c1[C@H](OC(C)(C)C)C(=O)O` [Example 428] was 4.6 nM.

As for `Cc1nc2c(cc(-c3ccnc(N4CCCN(C5COC5)CC4)c3)n2C)c(-c2ccc3c(c2)CCCO3)c1[C@H](OC(C)(C)C)C(=O)O` [Example 429], the concentration for half-maximal inhibition (IC50) was 75 nM. The value for `Cc1nc2c(cc(-c3ccnc(N4CCCN(C5COC5)CC4)c3)n2C)c(-c2ccc3c(c2C)CCCO3)c1[C@H](OC(C)(C)C)C(=O)O` [Example 430] was 16.3 nM. Next, `Cc1nc2c(cc(-c3ccnc(N4CCCN(C5COC5)CC4)c3)n2C)c(-c2ccc(Cl)cc2)c1[C@H](OC(C)(C)C)C(=O)O` [Example 431]: 143 nM.

As to `Cc1ccc(-c2c([C@H](OC(C)(C)C)C(=O)O)c(C)nc3c2cc(-c2ccnc(N4CCCN(C5COC5)CC4)c2)n3C)cc1` [Example 432], the IC50 came out at 200 nM.

As for `Cc1nc2c(cc(-c3ccnc(N4CCCN(C5COC5)CC4)c3)n2C)c(-c2cc(F)c3c(c2C)NCCO3)c1[C@H](OC(C)(C)C)C(=O)O` [Example 433], the IC50 came to 127 nM. Next, `Cc1nc2c(cc(-c3ccnc(N4CCCN(C5COC5)CC4)c3)n2C)c(-c2ccc3c(c2C)NCCO3)c1[C@H](OC(C)(C)C)C(=O)O` [Example 434]: 51.6 nM; `Cc1nc2c(cc(-c3ccnc(N4CCCN(C5COC5)CC4)c3)n2C)c(-c2ccccc2)c1[C@H](OC(C)(C)C)C(=O)O` [Example 435]: 3010 nM; `Cc1nc2c(cc(-c3ccnc(-c4ccc5c(cnn5C)c4)c3)n2C)c(C2=CCC(C)(C)CC2)c1[C@H](OC(C)(C)C)C(=O)O` [Example 436]: 5.9 nM.

As for `Cc1nc2c(cc(-c3ccnc(-c4ccc5c(cnn5C)c4)c3)n2C)c(-c2ccc(Cl)cc2O)c1[C@H](OC(C)(C)C)C(=O)O` [Example 437], the 50% inhibitory concentration (IC50) turned out to be 38 nM. The value for `CCO[C@H](C(=O)O)c1c(C)nc2c(cc(-c3ccnc(-c4ccc5c(cnn5C)c4)c3)n2C)c1-c1cc(F)c2c(c1C)CCCO2` [Example 438] was 4.9 nM. Next, `CCO[C@H](C(=O)O)c1c(C)nc2c(cc(-c3nnc(-c4ccc5c(cnn5C)c4)o3)n2C)c1-c1cc(F)c2c(c1C)CCCO2` [Example 439]: 3 nM; `CCO[C@H](C(=O)O)c1c(C)nc2c(cc(-c3nnc(N4CCN(C5CCOCC5)CC4)o3)n2C)c1-c1cc(F)c2c(c1C)CCCO2` [Example 440]: 348 nM. The value for `Cc1nc2c(cc(-c3nnc(N4CCN(C5CCOCC5)CC4)o3)n2C)c(-c2cc(F)c3c(c2C)CCCO3)c1[C@H](OC(C)C)C(=O)O` [Example 441] was 160 nM; that for `Cc1nc2c(cc(-c3nnc(-c4ccc5c(cnn5C)c4)o3)n2C)c(-c2cc(F)c3c(c2C)CCCO3)c1[C@H](OC(C)C)C(=O)O` [Example 442] was 5.1 nM.

Source of the values: patent US20150191469A1, “COMPOUNDS AND METHODS FOR TREATING HIV” (priority 2012, published 2015).
